Experimental data published in patent US10434116B2 (priority 2014, dated 2019).
Entries after “also recorded” stand apart in the source; their conditions may differ. Where a name gives a salt, the structure may show the parent alone. Read-outs that look alike come from different tables or passages of the source.

How the values were obtained:
[1] = system: MERS-CoV; experiment: microbe, parasite or virus in culture; assay type: cell-based, MERS-CoV strain Hu/Jordan-N3/2012; details: for EC50: read-out: EC50 against MERS-CoV
[2] = system: MERS-CoV (Jordan); experiment: microbe, parasite or virus in culture; assay type: cell-based; details: Middle East respiratory syndrome-related coronavirus, Vero C1008, read-out: EC50 for MERS-CoV (virus production, TCID50)
[3] = system: SARS-CoV; experiment: microbe, parasite or virus in culture; assay type: cell-based; details: Severe acute respiratory syndrome coronavirus, Vero C1008, read-out: EC50 for SARS-CoV (virus production, TCID50)
[4] = system: SARS-CoV; details: mouse, in vivo; cited from earlier work
[5] = system: Vero E6 cells
[6] = system: MERS-S pseudoparticles; assay type: cell-based, MERS-CoV
[7] = system: MERS-CoV; assay type: cell-based
[8] = system: SARS-CoV; assay type: cell-based
[9] = system: MERS-CoV; experiment: microbe, parasite or virus in culture; assay type: cell-based; details: Middle East respiratory syndrome-related coronavirus, Vero C1008, read-out: IC50 value for MERS-CoV (TCID50 assay)
[10] = system: SARS-CoV; experiment: microbe, parasite or virus in culture; assay type: cell-based; details: Severe acute respiratory syndrome coronavirus, Vero C1008, read-out: IC50 value for SARS-CoV (TCID50 assay)
[11] = system: MERS-CoV; details: cited from earlier work
[12] = system: SARS-CoV; details: cited from earlier work
[13] = Middle East respiratory syndrome-related coronavirus, Vero C1008, 48 h, read-out: MERS-CoV IC50
[14] = Middle East respiratory syndrome-related coronavirus, Vero
[15] = Middle East respiratory syndrome-related coronavirus, Vero C1008, 48 h, read-out: IC50 against MERS-CoV

Structure (SMILES) | IC50 [1, 13] [µM] | toxicity [5] | other results
CCN(CC)Cc1cc(Nc2ccnc3cc(Cl)ccc23)ccc1O | 6.21 | – | –
CC[C@H]1CN2CCc3cc(OC)c(OC)cc3[C@@H]2C[C@@H]1C[C@H]1NCCc2cc(OC)c(OC)cc21 | 0.014 | – | –
COc1ccc(C[C@H]2NC[C@H](O)[C@H]2OC(C)=O)cc1 [Anisomycin] | – | – | IC50 ([1]; read-out: MERS-CoV IC50): 0.003 µM
CCN(CC)CCCC(C)Nc1ccnc2cc(Cl)ccc12 (centres unmarked) [Chloroquine Phosphate] | 6.28 | – | EC50 [1, 14]: 9.51 µM; EC50 [1]: 6.28 µM; EC50 [2]: 18.4 µM; EC50 [3]: 6.43 µM; efficacy in reducing SARS-CoV virus titers [4]: did not show efficacy
CN(C)CCOC(C)(c1ccccc1)c1ccc(Cl)cc1 (centres unmarked) [Chlorphenoxamine hydrochloride] | 12.6 | – | –
CN(C)CCCN1c2ccccc2Sc2ccc(Cl)cc21 [Chlorpromazine hydrochloride] | 9.51 | low toxicity | IC50 [1, 15]: 5.76 to 12.9 µM; EC50 [2]: 19.4 µM; EC50 [3]: 4.86 µM
O=C1NCN(c2ccccc2)C12CCN(CCCC(c1ccc(F)cc1)c1ccc(F)cc1)CC2 [Fluspirilene] | 7.48 | – | –
Nc1ccn([C@@H]2O[C@H](CO)[C@@H](O)C2(F)F)c(=O)n1 [Gemcitabine hydrochloride] | 1.22 | low toxicity | EC50 [1, 14]: 1.2 µM; CCF2 signal (fluorescence) [6]: 95 % of control
COC(=O)C[C@](O)(CCCC(C)(C)O)C(=O)O[C@@H]1C(OC)=C[C@]23CCCN2CCc2cc4c(cc2[C@H]13)OCO4 [Homoharringtonine] | 0.0718 | – | –
CCN(CCO)CCCC(C)Nc1ccnc2cc(Cl)ccc12 (centres unmarked) [Hydroxychloroquine sulfate] | 8.28 | – | –
Cc1ccc(NC(=O)c2ccc(CN3CCN(C)CC3)cc2)cc1Nc1nccc(-c2cccnc2)n1 [Imatinib mesylate] | – | low toxicity | inhibition of virus growth, MERS-CoV [7]: significant inhibition of virus growth; also recorded: little inhibition of either virus; inhibition of virus growth, SARS-CoV [8]: significant inhibition of virus growth; also recorded: little inhibition of either virus; CCF2 signal (fluorescence) [6]: 7.8 % of control
OC(c1cc(C(F)(F)F)nc2c(C(F)(F)F)cccc12)C1CCCCN1 (centres unmarked) [Mefloquine] | 7.42 | – | –
Cc1cn(-c2cc(NC(=O)c3ccc(C)c(Nc4nccc(-c5cccnc5)n4)c3)cc(C(F)(F)F)c2)cn1 [Nilotinib] | 5.47 | low toxicity | activity against MERS-CoV (in words) [1]: does not significantly inhibit MERS-CoV; maximum inhibition of MERS-CoV [1]: 39%; IC50 [9]: 9.53 µM; IC50 [10]: 2.3 µM; inhibition of virus growth, SARS-CoV [8]: significant inhibition of virus growth; also recorded: little inhibition of either virus
CC(CN1c2ccccc2Sc2ccccc21)N(C)C (centres unmarked) [Promethazine hydrochloride] | 11.8 | – | –
CC(C)N1CCN(c2ccc(OCC3COC(Cn4cncn4)(c4ccc(Cl)cc4Cl)O3)cc2)CC1 (centres unmarked) [Terconazole] | 12.2 | – | –
CCSc1ccc2c(c1)N(CCCN1CCN(C)CC1)c1ccccc1S2 [Thiethylperazine maleate] | 7.87 | – | –
CN1CCN(CC/C=C2/c3ccccc3Sc3ccc(S(=O)(=O)N(C)C)cc32)CC1 [Thiothixene] | 9.3 | – | –
CN(C)CCOc1ccc(/C(=C(/CCCl)c2ccccc2)c2ccccc2)cc1 [Toremifene citrate] | 12.9 | low toxicity | EC50 [1, 14]: 12.9 µM
CN(C)CCCN1c2ccccc2Sc2ccc(C(F)(F)F)cc21 [Triflupromazine hydrochloride] | 5.76 | low toxicity | IC50 [1, 15]: 5.76 to 12.9 µM; IC50 ([1]; read-out: IC50 against MERS-CoV, hydrochloride): 5.76 µM
CCN(CC)CCOc1ccc(C(O)(Cc2ccc(Cl)cc2)c2ccc(C)cc2)cc1 (centres unmarked) [Triparanol] | 5.28 | – | –
Cc1nc(Nc2ncc(C(=O)Nc3c(C)cccc3Cl)s2)cc(N2CCN(CCO)CC2)n1 [dasatinib] | – | low toxicity | –
COc1c(C)c2c(c(O)c1C/C=C(\C)CCC(=O)O)C(=O)OC2 [mycophenolic acid (MPA), mycophenolic acid] | – | – | effect against MERS-CoV infection in vitro [11]: highly effective; activity against SARS-CoV infection [12]: little activity
COC(=O)Nc1nc2ccc(C(=O)c3cccs3)cc2[nH]1 [nocodazole] | – | – | activity against MERS-CoV (in words) [1]: high activity
